Experimental data: patent publication US20240300886A1, “ARYLCYCLOHEXYLAMINE DERIVATIVES AND THEIR USE IN THE TREATMENT OF PSYCHIATRIC DISORDERS” (GILGAMESH PHARMACEUTICALS, INC., priority 2021, published 2024)
Read-outs that look alike come from different tables or passages of the source.

Assays:
[1] = Oral bioavailability in rats, Method A (plasma PK); type: in vivo, Sprague Dawley rats; details: rat plasma
Protocol: Animals. Male Sprague Dawley rats were used in these studies. Animals were randomly assigned to treatment groups and were fasted for 4 h before dosing.
Drugs. Test compounds were dissolved in normal saline and administered intravenously (iv) or orally (po) at a dose of 10 mg/kg (calculated based on freebase) and at a volume of 5 mL/kg body weight. Compounds were tested as the racemates or pure enantiomers, as indicated.
Sample Collection and Bioanalysis. Blood samples were collected under 2,2,2-tribromoethanol anesthesia (150 mg/kg, ip) from the orbital sinus at 0.083, 0.25, 0.5, 1, 2, 4, 8 and 24 h (4 animals per time point) into microcontainers containing K2EDTA. Immediately after collection of blood, rats were euthanized by […]. All samples were immediately processed, flash-frozen, and stored at −70° C. until subsequent analysis. Plasma samples were separated by centrifugation of whole blood and aliquots (50 μL) were mixed with 200 μL of internal standard solution (400 ng/mL in 1:1 v/v CH3CN:MeOH). After mixing by pipetting and centrifuging for 4 min at 6,000 rpm, 0.5 μL of each supernatant was analyzed for drug using a fit-for-purpose liquid chromatography-tandem mass spectrometry (LC-MS/MS) method, with authentic samples of each analyte used for calibration and identification.
Data Analysis. The drug concentrations of samples below the lower limit of quantitation (LLOQ) were designated as zero. Pharmacokinetic data analysis was performed using noncompartmental, bolus injection or extravascular input analysis models in WinNonlin 5.2 (PharSight). Data points below LLOQ were presented as missing to improve validity of t1/2 calculations.

[2] = Oral bioavailability in minipigs (plasma PK); type: in vivo, Bama minipigs; details: for AUC(0-inf): male, Bama
Protocol: Animals. Male Bama minipigs were used in these studies. Animals were randomly assigned to treatment groups and were fasted overnight before dosing.
(§1) Drugs. Compound 2R was dissolved in a vehicle consisting of normal saline. It was then administered intravenously (iv) or orally (po) at a dose of 1 mg/kg (calculated based on freebase) and at a volume of 2 mL/kg body weight (n=3 per dosing route).
(§2) Sample Collection and Bioanalysis. Blood samples (approximately 500 μL) were collected under manual restraint from the cephalic vein at 0.08, 0.25, 0.5, 1, 2, 4, 8, and 24 h ([…]) into K2EDTA tubes and placed on wet ice. Immediately after blood collection, plasma was harvested by centrifugation at 3,000 g for 5 min at 4° C. within 15 minutes of collection and subsequently stored at −70±10° C. until bioanalysis. For bioanalysis, for diluted plasma samples, an aliquot of 2 μL sample was diluted with 18 μL blank matrix and the dilution factor was 10. For non-diluted samples, an aliquot of 20 μL sample was added with 300 μL internal standard (diclofenac, 60 ng/mL) in acetonitrile. The mixture was vortexed for 10 minutes and centrifuged at 5,800 rpm for 10 minutes. 90 μL of supernatant was transferred to a 96 well plate and analyzed with a fit-for-purpose LC-MS/MS method, with authentic samples of each analyte used for calibration and identification.
Data Analysis. Pharmacokinetic parameters were estimated using the non-compartmental analysis tool of Phoenix® WinNonlin software (Ver 8.2).

[3] = Oral bioavailability in monkeys (plasma PK); type: in vivo, Cynomolgus monkeys; details: for AUC(0-inf): male, cynomolgus monkey
Protocol: Animals. Male Cynomolgus monkeys were used in these studies. Animals were randomly assigned to treatment groups and were fasted overnight before dosing.
as §1, §2
Data Analysis. Pharmacokinetic parameters were estimated using the non-compartmental analysis tool of Phoenix® a WinNonlin software (Ver 8.2).

| Structure (SMILES) | AUC(0-inf) ([1]; male, Sprague Dawley, 10 mg/kg iv, read-out: AUC0-inf (iv) (converted)) [ng·h/mL] | half-life ([1]; male, Sprague Dawley, 10 mg/kg iv, read-out: t1/2 (iv)) [min] | Cmax ([1]; male, Sprague Dawley, 10 mg/kg po) [ng/mL] | AUC(0-inf) ([1]; male, Sprague Dawley, 10 mg/kg po, read-out: AUC0-inf (po) (converted)) [ng·h/mL] | half-life ([1]; male, Sprague Dawley, 10 mg/kg po, read-out: t1/2 (po)) [min] | F ([1]; 10 mg/kg) [%] | AUC(0-inf) ([2]; minipig plasma, 1 mg/kg iv, read-out: AUC0-inf (iv) (converted)) [ng·h/mL] | AUC(0-inf) ([2]; minipig plasma, 1 mg/kg po, read-out: AUC0-inf (po) (converted)) [ng·h/mL] | F ([2]; minipig plasma, 1 mg/kg) [%] | oral bioavailability (in words) ([2]; minipigs, 1 mg/kg) | AUC(0-inf) ([3]; monkey plasma, 1 mg/kg iv, read-out: AUC0-inf (iv) (converted)) [ng·h/mL] | AUC(0-inf) ([3]; monkey plasma, 1 mg/kg po, read-out: AUC0-inf (po) (converted)) [ng·h/mL] | F ([3]; monkey plasma, 1 mg/kg) [%] | oral bioavailability (in words) ([3]; monkeys, 1 mg/kg) |
| --- | --- | --- | --- | --- | --- | --- | --- | --- | --- | --- | --- | --- | --- | --- |
| CNC1(c2ccccc2Cl)CCCCC1=O (racemic) [racemic ketamine, ketamine] | 1350 | 41.6 | 190 | 125 | 33.7 | 9.07 |  |  |  |  |  |  |  |  |
| CN[C@@]1(c2ccc(F)cc2)CCCCC1=O [Compound 2R, (R)-2-(4-fluorophenyl)-2(methylamino)cyclohexan-1-one] |  |  |  |  |  |  | 566 | 242 | 42.7 | good | 964 | 259 | 27 | moderate |
